Data set [1] is described as follows: High temperature stress stability at 100° C., HPLC assay. The data set is classed as physicochemical. The settings on record: in the light. As for the experimental part:
The two samples, lercanidipine hydrochloride hemihydrate, and anhydrous lercanidipine hydrochloride were heated, in the light, at 100° C. for 48 hours. The samples were tested at the following times; 0 hours, 24 hours, and 48 hours. The purity of the lercanidipine was checked by HPLC analysis under the following conditions:
Column: m-Bondapak C-18 (Waters), particle size […], 300×3.9 mm i.d.

Data set [2] can be described thus: Water content at 75% relative humidity (Karl-Fisher). The data set is classed as physicochemical. As for the experimental part:
Samples of anhydrous lercanidipine hydrochloride and lercanidipine hydrochloride hemihydrate were placed in open polyethylene bags in flasks and heated, in the dark, at 60° C. and 75% relative humidity. The samples were checked for hygroscopicity by determination of the water content using the Karl-Fisher method. The samples were tested at 8 and 15 days.
Two additional samples of the anhydrous lercanidipine hydrochloride and lercanidipine hydrochloride hemihydrate were placed in open polyethylene bags in flasks and heated, in the dark, at 40° C. and 75% relative humidity. The samples were tested as described above at 8 and 15 days.

For data set [3], the system named is mouse peritoneal macrophages. Nature of the data set: Cholesteryl ester hydrolysis in macrophages. As to conditions: AcLDL 50 μg/ml + S-58035 1 μg/ml. The format is cell-based. On the procedure: These experiments were performed by incubating cells preloaded with [^3 H]cholesterol in the presence of the specific ACAT inhibitor S-58035. The blockage of intracellular reesterification of cholesterol allowed the assessment of the ability of cells to hydrolyze the accumulated cholesterol esters.
For studies involving the quantitation of the hydrolysis of cholesteryl esters in cytoplasmic lipid droplets, cells, prepared according to the procedure in Example 6A, are loaded with cholesteryl esters by exposure for 24 hours to the medium containing 50 μg/ml acetyl LDL. [1,2-^3 H]Cholesterol is included in all loading media at a concentration of 0.5 μCi/ml. After 24 hours loading period, during which time the radiolabeled cholesterol is incorporated and esterified, the cell monolayers are washed and incubated an additional 24 hours in medium containing 0.1% bovine serum albumin to allow the intracellular pools of labelled cholesterol to equilibrate to the same specific activity. To quantitate cholesteryl ester hydrolysis, the loaded cells are incubated for up to 24 hours in Dulbecco's minimum essential medium containing, 0.1% bovine serum albumin, lercanidipines, and the compound S-58035, an inhibitor of acyl-coenzyme A-cholesterol acyltransferase. The inhibition of acyl-coenzyme A-cholesterol acyltransferase prevents the reesterification of any free cholesterol generated by cholesteryl ester hydrolysis and thus allows assessment of the activity of the hydrolase. The hydrolysis of the cholesteryl esters is quantified by determining the decrease of radiolabeled cholesteryl esters (E. H. Harrison et al., J. Lipid. Res. 31: […] with phosphate buffered saline and extracted with hexane:isopropanol (3:2 v/v). The media were extracted with chloroform:methanol (2:1 v/v). After solvent removal, free and esterified cholesterol were separated by TLC (isooctane:diethyl ether:acetic acid, 75:25:2 by volume). Cholesterol mass or radioactivity of the spots were determined by an enzymatic method (Boehringer Mannheim, Germany) (F. Bernini et al., Atherosclerosis 104: 19 (1993)) or by liquid scintillation counting (Lipoluma Lumac, Landgraf, The Netherlands) respectively.

This is an account of results in US5912351A, “Anhydrous 1,4-Dihydropyridines and salts thereof” (Recordati, S.A. Chemical and Pharmaceutical Company, priority 1995, dated 1999).

Molecules are shown by their SMILES. Structures can show the parent of a compound that is named as a salt.

For orientation: share remaining means the share of the starting amount still present when the sample was taken. Higher therefore signals greater stability. As to `COC(=O)C1=C(C)NC(C)=C(C(=O)OC(C)(C)CN(C)CCC(c2ccccc2)c2ccccc2)C1c1cccc([N+](=O)[O-])c1` (stereo not shown) [Anhydrous, METHYL 1,1-N-TRIMETHYL-N-(3,3-DIPHENYLPROPYL)-2-AMINOETHYL 1,4-DIHYDRO-2,6-DIMETHYL-4-(3-NITROPHENYL) PYRIDINE-3,5-DICARBOXYLATE (LERCANIDIPINE) HYDROCHLORIDE], the “Assay % by HPLC” value in data set [1] (0 hr, HYDROCHLORIDE) is 99.74%. In addition, the amount remaining at 24 h in data set [1] (solid, 24 hrs) worked out at 99.4%. The amount remaining at 48 h in data set [1] (solid, 48 hrs) amounted to 99%. For the same compound, the Water Content in data set [2] (40° C., 0 days, HYDROCHLORIDE) amounted to 0.28%; in data set [2] (40° C., 8 days, HYDROCHLORIDE), 0.3%; in data set [2] (40° C., 15 days, HYDROCHLORIDE) it was 0.32%; in data set [2] (60° C., 0 days, HYDROCHLORIDE) it was 0.28%; in data set [2] (60° C., 8 days, HYDROCHLORIDE), 0.85%; in data set [2] (60° C., 15 days, HYDROCHLORIDE), 0.77%.
Regarding `CCCCCCCCCC[Si](C)(C)CCC(=O)NC(Cc1ccc(C)cc1)c1ccccc1` (stereo not shown) [Example S-58035, reference compound], the “% of cholesteryl ester” value in data set [3] was found to be 15 ± 0.5%.
For the compound `COC(=O)C1=C(C)NC(C)=C(C(=O)OC(C)(C)CN(C)CCC(c2ccccc2)c2ccccc2)C1c1cccc([N+](=O)[O-])c1` (stereo not shown) [Hemihydrate, Lercanidipine hydrochloride hemihydrate, reference compound], the “Assay % by HPLC” value is 99.85% in data set [1] (0 hr); 92.35% in data set [1] (24 hrs, hydrochloride hemihydrate, 1440 min); 90.96% in data set [1] (48 hrs, hydrochloride hemihydrate, 2880 min). For the same compound, the Water Content in data set [2] (40° C., 0 days) amounted to 1.42%; in data set [2] (40° C., 8 days), 3.14%; in data set [2] (40° C., 15 days), 3.05%; in data set [2] (60° C., 0 days) it was 1.42%; in data set [2] (60° C., 8 days), 4%; in data set [2] (60° C., 15 days), 4.04%.
